Test results taken from patent US8952024B2, “Herbicidal pyrimidone derivatives” (E I du Pont de Nemours and Company, priority 2009, dated 2015).

Legend:
Format in all cases: in vivo
[1] = test system: bermudagrass (Cynodon dactylon); test: Test B pre-/postemergence plant response
Summary of the method: (§1)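 Plants treated either at seeding (loam/sand soil) or postemergence at 2 to 18 cm height, using a surfactant-containing non-phytotoxic solvent formulation. Evaluation was visual after 13 to 15 days, 0 to 100 scale relative to controls.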

[2] = test system: blackgrass (Alopecurus myosuroides); test: Test B pre-/postemergence plant response
Summary of the method: as §1

[3] = test system: cocklebur (Xanthium strumarium); test: Test B pre-/postemergence plant response
Summary of the method: as §1

corn (Zea mays) = test: Test B pre-/postemergence plant response
Summary of the method: as §1

[4] = test system: giant foxtail (Setaria faberii); test: Test B pre-/postemergence plant response
Summary of the method: as §1

[5] = test system: johnsongrass (Sorghum halepense); test: Test B pre-/postemergence plant response
Summary of the method: as §1

kochia (Kochia scoparia) = test: Test B pre-/postemergence plant response
Summary of the method: as §1

[6] = test system: morningglory (Ipomoea coccinea); test: Test B pre-/postemergence plant response
Summary of the method: as §1

soybean (Glycine max) = test: Test B pre-/postemergence plant response
Summary of the method: as §1

wild oat (Avena fatua) = test: Test B pre-/postemergence plant response
Summary of the method: as §1

[7] = test system: canarygrass (Phalaris minor); test: Test B postemergence plant response
Summary of the method: (§2)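 Plants grown in peat/vermiculite medium were sprayed postemergence at 2–18 cm height (1- to 4-leaf stage). After 13–15 days in the greenhouse, response was rated visually against untreated controls on a 0–100 scale (0 no effect, 100 complete control).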

[8] = test system: chickweed (Stellaria media); test: Test B postemergence plant response
Summary of the method: as §2

[9] = test system: windgrass (Apera spica-venti); test: Test B postemergence plant response
Summary of the method: as §2

[10] = test system: winter barley (Hordeum vulgare); test: Test B postemergence plant response
Summary of the method: as §2

[11] = 31 g ai/ha, postemergence, scale 0 to 100, 0 is no effect, 100 is complete control
[12] = 62 g ai/ha, postemergence, 0 is no effect, 100 is complete control, 13 to 15 days
[13] = Postemergence, 125 g ai/ha, visual rating after 13 to 15 days, scale 0 (no effect) to 100 (complete control)
[14] = Postemergence, 250 g ai/ha, scale 0 to 100 (0 no effect, 100 complete control)
[15] = Preemergence, 31 g ai/ha, scale 0 to 100 (0 no effect, 100 complete control)
[16] = Preemergence, 62 g ai/ha, scale 0 to 100 (0 no effect, 100 complete control)
[17] = Preemergence, 125 g ai/ha, scale 0 to 100, 0 no effect, 100 complete control
[18] = Preemergence, 250 g ai/ha, 0 to 100 scale

CCCn1c(-c2cccs2)ncc(C(=O)C2=C(O)CCCC2=O)c1=O [Compound 77]
Plant response rating, Bermudagrass [1, 11]: 90
Bermudagrass plant response rating (0 to 100 scale) [1, 12]: 90
Plant response rating, Bermudagrass [1, 13]: 95
Plant response rating, Bermudagrass [1, 14]: 95
Plant response rating, Bermudagrass [1, 15]: 55
Plant response rating, Bermudagrass [1, 16]: 100
Plant response rating, Bermudagrass [1, 17]: 100
Bermudagrass plant response rating ([1]; Preemergence, 250 g ai/ha, 0 to 100 scale, 0 no effect, 100 complete control): 100
Plant response rating, Blackgrass [2, 11]: 0
Blackgrass plant response rating (0 to 100 scale) [2, 12]: 0
Plant response rating, Blackgrass [2, 13]: 0
Plant response rating, Blackgrass [2, 14]: 5
Plant response rating, Blackgrass [2, 15]: 0
Plant response rating, Blackgrass [2, 16]: 0
Plant response rating, Blackgrass [2, 17]: 0
Blackgrass plant response rating [2, 18]: 0
Plant response rating, Cocklebur [3, 11]: 0
Cocklebur plant response rating (0 to 100 scale) [3, 12]: 0
Plant response rating, Cocklebur [3, 13]: 60
Plant response rating, Cocklebur [3, 14]: 85
Plant response rating, Cocklebur [3, 15]: 0
Plant response rating, Cocklebur [3, 16]: 0
Plant response rating, Cocklebur [3, 17]: 10
Cocklebur plant response rating [3, 18]: 65
Plant response rating, Corn (corn (Zea mays); [11]): 0
Corn plant response rating (0 to 100 scale) (corn (Zea mays); [12]): 5
Plant response rating, Corn (corn (Zea mays); [13]): 60
Plant response rating, Corn (corn (Zea mays); [14]): 75
Plant response rating, Corn (corn (Zea mays); [15]): 0
Plant response rating, Corn (corn (Zea mays); [16]): 0
Plant response rating, Corn (corn (Zea mays); [17]): 0
Corn plant response rating (corn (Zea mays); [18]): 0
Plant response rating, Foxtail, Giant [4, 11]: 65
Foxtail, Giant plant response rating (0 to 100 scale) [4, 12]: 75
Plant response rating, Foxtail, Giant [4, 13]: 75
Plant response rating, Foxtail, Giant [4, 14]: 80
Plant response rating, Foxtail, Giant [4, 15]: 0
Plant response rating, Foxtail, Giant [4, 16]: 0
Plant response rating, Foxtail, Giant [4, 17]: 5
Foxtail, Giant plant response rating [4, 18]: 45
Plant response rating, Johnsongrass [5, 11]: 0
Johnsongrass plant response rating (0 to 100 scale) [5, 12]: 0
Plant response rating, Johnsongrass [5, 13]: 10
Plant response rating, Johnsongrass [5, 14]: 10
Plant response rating, Johnsongrass [5, 15]: 0
Plant response rating, Johnsongrass [5, 16]: 0
Plant response rating, Johnsongrass [5, 17]: 0
Johnsongrass plant response rating [5, 18]: 0
Plant response rating, Kochia (kochia (Kochia scoparia); [11]): 75
Kochia plant response rating (0 to 100 scale) (kochia (Kochia scoparia); [12]): 80
Plant response rating, Kochia (kochia (Kochia scoparia); [13]): 95
Plant response rating, Kochia (kochia (Kochia scoparia); [14]): 95
Plant response rating, Kochia (kochia (Kochia scoparia); [15]): 85
Plant response rating, Kochia (kochia (Kochia scoparia); [16]): 90
Plant response rating, Kochia (kochia (Kochia scoparia); [17]): 90
Kochia plant response rating (kochia (Kochia scoparia); [18]): 95
Plant response rating, Morningglory [6, 11]: 75
Morningglory plant response rating (0 to 100 scale) [6, 12]: 75
Plant response rating, Morningglory [6, 13]: 80
Plant response rating, Morningglory [6, 14]: 90
Plant response rating, Morningglory [6, 15]: 0
Plant response rating, Morningglory [6, 16]: 65
Plant response rating, Morningglory [6, 17]: 75
Morningglory plant response rating [6, 18]: 90
Plant response rating, Soybean (soybean (Glycine max); [11]): 25
Soybean plant response rating (0 to 100 scale) (soybean (Glycine max); [12]): 50
Plant response rating, Soybean (soybean (Glycine max); [13]): 70
Plant response rating, Soybean (soybean (Glycine max); [14]): 70
Plant response rating, Oat, Wild (wild oat (Avena fatua); [11]): 0
Oat, Wild plant response rating (0 to 100 scale) (wild oat (Avena fatua); [12]): 5
Plant response rating, Oat, Wild (wild oat (Avena fatua); [13]): 5
Plant response rating, Oat, Wild (wild oat (Avena fatua); [14]): 5
Plant response rating, Oat, Wild (wild oat (Avena fatua); [15]): 0
Plant response rating, Oat, Wild (wild oat (Avena fatua); [16]): 0
Plant response rating, Oat, Wild (wild oat (Avena fatua); [17]): 0
Oat, Wild plant response rating (wild oat (Avena fatua); [18]): 0
Plant response rating, Canarygrass [7, 11]: 0
Canarygrass plant response rating (0 to 100 scale) [7, 12]: 0
Plant response rating, Canarygrass [7, 13]: 0
Plant response rating, Canarygrass [7, 14]: 0
Plant response rating, Chickweed [8, 11]: 80
Chickweed plant response rating (0 to 100 scale) [8, 12]: 85
Plant response rating, Chickweed [8, 13]: 95
Plant response rating, Chickweed [8, 14]: 98
Plant response rating, Windgrass [9, 11]: 10
Windgrass plant response rating (0 to 100 scale) [9, 12]: 10
Plant response rating, Windgrass [9, 13]: 20
Plant response rating, Windgrass [9, 14]: 25
Plant response rating, Barley [10, 11]: 0
Barley plant response rating (0 to 100 scale) [10, 12]: 0
Plant response rating, Barley [10, 13]: 0
Plant response rating, Barley [10, 14]: 0
